# Measured values published in patent publication US20230117205A1, “B7-H4 ANTIBODY-DRUG CONJUGATES FOR THE TREATMENT OF CANCER” (SEAGEN INC., priority 2021, published 2023).
# How the values were obtained:
# MDA-MB-231 = assay: In vitro cytotoxicity, 96-hour 3D spheroid, CellTiter-Glo; assay type: cell-based, human; settings: MDA-MB-231 (non-B7-H4-expressing)
# Protocol: (§1) The cytotoxicity was evaluated when cells were grown in 3D spheroid (round bottom, ultra-low attachment plates) conditions.
# (§2) Cancer cell lines expressing B7-H4 (SKBR3, MX-1, and MDA-MB-468) as well as a non-B7-H4-expressing cell line (MDA-MB-231) were thawed from cryovials stored at […] into complete growth media and allowed to grow and recover from thaw at 37° C. and 5% CO2 until cell viability determined by Vi-CELL XR (Beckman Coulter, Indianapolis, Ind.) were above 90%. Cells were then counted and plated at 2000, 2200, 2200, and 2200 cells/well respectively. Cells were plated in 150 μL complete growth media in round bottom, black walled, ultra-low attachment, 96-well plates (Corning 4520). Cell plates were placed at 37° C. and 5% CO2 overnight to allow cells to adhere. ADCs were thawed and 4×8-point serial dilutions were prepared (final dose range 1000-0.061 ng/mL) in RPMI 1640+20% FBS. Fifty μL of each dilution were then added to each cell plate in triplicate. Cells were then left to incubate at 37° C. and 5% CO2 for 96 hours. Cell plates were then removed from the incubator and allowed to cool to room temperature for 30 minutes. CellTiter-Glo® luminescent assay (Promega Corporation, Madison, Wis.) was prepared according to Promega's protocol. One hundred uL CellTiter-Glo® were added to assay plates using a Formulatrix Tempest liquid handler (Formulatrix, Inc.) and plates were heat sealed using an ALPS300 automated microplate heat sealer (Thermo Scientific) and protected from light for 30 minutes at room temperature. The luminescence of each plate was then determined using an EnVision Multilabel plate reader (Perkin Elmer, Waltham, Mass.). […] One hundred uL of lysed spheroid suspension was then transferred to a black walled, flat bottom 96 well plate and read on the EnVision Multilabel plate reader (Perkin Elmer, Waltham, Mass.). Raw data were then analyzed in Graphpad Prism (San Diego, Calif.) using a non-linear, 4-parameter curve fit model (Y=Bottom+[Top-Bottom]/[1+10^[[Log EC50-X]×HillSlope]]). […]
# MDA-MB-468 = assay: as above; assay type: cell-based, human
# Protocol: as §1, §2
# SKBR3 = assay: as above; assay type: cell-based, human
# Protocol: as §1, §2
# hFcγRIIb = target: T1, hFcγRIIb (Homo sapiens, UniProt P31994); assay: BLI binding to human Fc receptors; settings: low data quality
# T1 construct: made in house
# T1 sequence (P31994 43-310): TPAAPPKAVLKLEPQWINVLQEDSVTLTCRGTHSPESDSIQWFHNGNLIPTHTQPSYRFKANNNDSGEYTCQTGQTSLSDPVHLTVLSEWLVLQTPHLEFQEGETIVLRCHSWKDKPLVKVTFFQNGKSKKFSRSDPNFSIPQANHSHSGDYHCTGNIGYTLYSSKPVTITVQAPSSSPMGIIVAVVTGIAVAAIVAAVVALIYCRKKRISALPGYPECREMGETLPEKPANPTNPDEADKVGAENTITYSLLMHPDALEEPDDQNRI
# [1] = test system: Ovarian carcinoma PDX models; assay: Ovarian carcinoma patient-derived xenograft models; assay type: in vivo, mice; settings: 3 mg/kg q7dx3; for % TGI: vs untreated
# Protocol: Tumor size and body weight were measured twice weekly, and the study was terminated when tumors in the control group reached 1500 mm^3 or up to Day 28, whichever occurred first, or maximum up to Day 60.
# Specifically, Stock mice were bilaterally implanted with fragments from one of the Champions TumorGraft® models representing human HR^+ BC or ovarian cancer. After the tumors reached 1000-1500 mm^3, they were harvested, and the tumor fragments were implanted subcutaneously (s.c.) in the left flank of the female study mice. Each animal was implanted with a specific passage lot and documented. Tumor growth was monitored twice a week using digital calipers, and the tumor volume (TV) was calculated using the formula (0.52×[length×width^2]). When the TV reached approximately 150-300 mm^3, animals were matched by tumor size and assigned into control (untreated) or treatment groups (n=3 animals/group). Each animal in the treatment groups was dosed with 3 mg/kg of ADC every seven days for three total doses (q7dx3). Tumor size and body weight were measured twice weekly, and the study was terminated when tumors in the control group reached 1500 mm^3 or up to Day 28, whichever occurred first, or maximum up to Day 60.
# Inhibition of tumor growth was determined by calculating the percent TGI on the day at which animals in the control group were terminated (100%×[1−(final MTV−initial MTV of a treated group)/(final MTV−initial MTV of the control group)]). Treatment started on Day 0.
# [2] = Non-human primate (NHP) and rat tox study; assay type: in vivo, rat and cynomolgus monkey
# Source text: The nonclinical safety profile of SGN-B7H4V supports the proposed initial clinical development plan. […] The hematologic toxicity is consistent with the mechanism of action (MOA) for MMAE.
# [3] = test system: MDA-MB-468 xenograft tumors; assay: MDA-MB-468 xenograft, single dose, tumor volume; assay type: in vivo, NSG mice; settings: single 3 mg/kg dose, i.p.
# Protocol: Tumors were harvested 7 days after treatment, cut in half, and processed for RNA-seq or IHC. […]
# Specifically, female NSG mice were implanted with 1×10^6 MDA-MB-468 cells in 25% Matrigel H C subcutaneously. Once tumor volumes reached ˜250-300 mm^3, mice were randomized into treatment groups of 6 mice each and treated with a single 3 mg/kg dose of ADC or mAb, or vehicle control (20 mM Histidine buffer, pH 6.0) injected intraperitoneally (i.p.). Stock concentrations of ADC were diluted to desired concentration with 20 mM Histidine buffer, pH 6.0 or and stock concentration of mAb were diluted to desired concentration with 0.01% Tween20 in PBS. Twenty-four hours prior to dosing, each animal was treated with 10 mg/kg hIVIG. One week following treatment, tumors were harvested, cut in half, and processed for RNAseq (frozen at −80° C.) or formalin-fixed and paraffin-embedded for immunohistochemical (IHC) analysis.
substance,measurement,setting,value
SGN-B7H4V: ADC of fully human IgG1 anti-B7-H4 mAb conjugated to monomethyl auristatin E (MMAE) via a protease-cleavable valine-citrulline linker (vedotin),×50,MDA-MB-231,>1000 ng/mL
same,×50,MDA-MB-468,105 ng/mL
same,×50,SKBR3,4 ng/mL
same,affinity,hFcγRIIb,weakest affinity
same,% TGI,"[1]; Ovarian_1, Day 48",110%
same,% TGI,"[1]; Ovarian_2, Day 41",103%
same,% TGI,"[1]; Ovarian_3, Day 53",84%
same,% TGI,"[1]; Ovarian_4, Day 52",−57%
same,% TGI,"[1]; Ovarian_5, Day 36",83%
same,% TGI,"[1]; Ovarian_6, Day 23",−33%
same,PDX models with tumor regression or tumor growth delay (e.g. TGI>50%),[1]; ovarian carcinoma,4/6
same,primary target organs of toxicity,[2]; pivotal GLP and non-GLP studies,"hematological system, testes, and ovaries"
same,tolerability,[2]; rat and cynomolgus monkey,tolerated in the rat and cynomolgus monkey
same,tumor volume,[3],reduction in tumor volume
